Results as given in publication PMC1892040 (PLoS Medicine, 2007).
Like-named read-outs stand apart in the source and are kept apart here.

Key:
[1] = target: T1, Human GR (Homo sapiens, UniProt P00390); settings: read-out: IC50 Human GR, GSSG; cited from earlier work
T1 sequence (P00390 44-522): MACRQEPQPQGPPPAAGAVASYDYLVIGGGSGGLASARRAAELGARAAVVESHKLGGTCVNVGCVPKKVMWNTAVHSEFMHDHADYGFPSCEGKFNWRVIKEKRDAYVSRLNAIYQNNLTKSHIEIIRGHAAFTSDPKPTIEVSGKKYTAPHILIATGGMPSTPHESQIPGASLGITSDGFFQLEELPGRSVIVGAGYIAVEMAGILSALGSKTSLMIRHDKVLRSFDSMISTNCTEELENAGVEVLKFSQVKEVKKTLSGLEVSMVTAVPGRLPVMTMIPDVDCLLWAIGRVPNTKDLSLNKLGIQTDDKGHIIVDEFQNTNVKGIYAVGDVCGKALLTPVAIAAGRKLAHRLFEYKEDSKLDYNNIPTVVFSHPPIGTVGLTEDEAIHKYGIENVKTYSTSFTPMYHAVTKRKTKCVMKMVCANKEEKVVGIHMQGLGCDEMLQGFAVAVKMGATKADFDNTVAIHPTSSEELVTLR

[2] = Tolerability of AF dosage in mice; type: in vivo; settings: 6 mg/kg twice daily for 9 d
Procedure: Mice (14-wk-old females; C57BL/6 in experiment 1, NIH-Swiss in experiment 2) infected with 60 S. mansoni cercariae were injected intraperitoneally with 6 mg/kg of AF twice daily for 9 d, beginning 7 wk post infection. Infected control mice were injected with equal amounts of carrier. Mice were perfused 1 wk after the final dose of AF and worm burdens were determined.

[3] = target: TGR (Schistosoma mansoni, UniProt Q962Y6); experiment: TrxR and GR activities of TGR in homogenates of treated worms; type: cell-based; settings: after 1 h of treatment with 10 μM AF, compared to control worms
Procedure: (§1) AF was dissolved in DMSO and added to freshly perfused worms in DMEM to 10 μM. Control worms were treated with equal amounts of carrier. Worms were subsequently observed for unpairing, motility, and mortality, and were collected at the indicated time intervals for analysis. Worms were homogenized by sonication in PBS and homogenates were assayed for TrxR and GR activities as described above. […] Each assay was done in triplicate and each experiment was done three times.

[4] = system: adult Schistosoma mansoni worms; experiment: Inhibitor studies on cultured adult worms (unpairing, mortality); type: cell-based
Procedure: as §1, with “AF was dissolved in DMSO and added to freshly perfused worms in DMEM to 10 μM.” left out

[5] = system: lactate dehydrogenase (LDH); experiment: LDH activity in homogenates of treated worms; type: cell-based, Schistosoma mansoni; settings: 10 μM AF
[6] = system: myeloma cell line SP2/0; experiment: Cytotoxicity assay (sulforhodamine B); type: cell-based; settings: for 5 d
Procedure: Cytotoxicity assays were performed using sulforhodamine B to determine cellular protein content as described. Briefly, myeloma cell line SP2/0 was cultured in 96-well microtiter plates containing 0.2 ml of RPMI-1640 per well at a cell density of 1,000 per well at 37 °C in 5% CO2. Cells were treated with drug concentrations (or drug carrier alone) and exposure times as indicated. After treatment, cells were fixed with 10% TCA at 4 °C for 1 h. Fixed cells were rinsed to remove fixative and then stained in 0.4% (w/v) sulforhodamine B (Sigma) in 1% acetic acid for 30 min. After washing with 1% acetic acid and dye extraction in 10 mM Tris (pH 10.5), plates were read at A564nm. The A564nm of drug-treated cells was compared to carrier-only-treated cells. The treatments were done in triplicate and the experiments repeated three times.

[7] = system: schistosomula; experiment: Schistosomula survival after RNAi and/or drug treatment; type: cell-based, Schistosoma mansoni; settings: AF at 2 μM; TGR dsRNA
Procedure: Cercariae were mechanically transformed to schistosomula by vortexing, and bodies were separated from tails by Percoll gradient centrifugation as described [13]. Immediately after transformation, TGR dsRNA or irrelevant dsRNA (each at 54 μg/ml) was added to ~500 schistosomula in 50 μl water followed by incubation at 37 °C for 30 min. After addition of 250 μl of RPMI-1640 medium, 300 U/ml penicillin, and 175 μg/ml streptomycin, parasites were incubated at 37 °C in 5% CO2 atmosphere for 4 d. Reduced O2 tension was obtained by filtering media and purging with 95% N2, 5% CO2 for 20 min before use. Parasites were cultured during the course of the experiment in the appropriate gaseous mix at 37 °C in a sealed modular incubator chamber (Billups-Rothenberg, http://www.brincubator.com) flushed with the same gaseous mix. On day 2 of the experiment, 50 μl of fresh media was added. Schistosomula were assessed daily for viability by microscopy. For each time point at least 1,500 parasites were scored as alive or dead in each experiment (three replicates of 500 each), and each experiment was repeated three times.
(B) Parasites were cultured in the presence of double-stranded TGR RNA (dashed lines) or of double-stranded irrelevant RNA (solid lines) in 20% O2 (♦) or 0% O2 (). […] (C) Combination of RNAi and drug treatments. Solid lines are irrelevant dsRNA treatments and dashed lines are dsTGR treatments; no additions (♦), 2 μM praziquantel () and 2 μM AF (▴). […] In each experiment for each time point at least 1,500 parasites were scored as alive or dead (three replicates of 500 parasites). The error bars represent the standard deviations of three independent experiments.

[8] = system: GSH:GSSG ratio; experiment: GSH:GSSG ratio in treated worms; type: cell-based, Schistosoma mansoni; settings: after 6 h of treatment with 10 μM AF
Procedure: as §1

[9] = target: T2, S. mansoni TGR (Schistosoma mansoni, UniProt Q962Y6); type: biochemical; parameters: The entire TGR ORF plus the SECIS element was subcloned into pET-24a; made in house; host or cells: Escherichia coli BL21(DE3) with pSUABC; settings: read-out: IC50 S. mansoni TGR, DTNB (TrxR activity); 3 mM DTNB, 15 min preincubation with 100 μM NADPH
T2 sequence (Q962Y6 1-598): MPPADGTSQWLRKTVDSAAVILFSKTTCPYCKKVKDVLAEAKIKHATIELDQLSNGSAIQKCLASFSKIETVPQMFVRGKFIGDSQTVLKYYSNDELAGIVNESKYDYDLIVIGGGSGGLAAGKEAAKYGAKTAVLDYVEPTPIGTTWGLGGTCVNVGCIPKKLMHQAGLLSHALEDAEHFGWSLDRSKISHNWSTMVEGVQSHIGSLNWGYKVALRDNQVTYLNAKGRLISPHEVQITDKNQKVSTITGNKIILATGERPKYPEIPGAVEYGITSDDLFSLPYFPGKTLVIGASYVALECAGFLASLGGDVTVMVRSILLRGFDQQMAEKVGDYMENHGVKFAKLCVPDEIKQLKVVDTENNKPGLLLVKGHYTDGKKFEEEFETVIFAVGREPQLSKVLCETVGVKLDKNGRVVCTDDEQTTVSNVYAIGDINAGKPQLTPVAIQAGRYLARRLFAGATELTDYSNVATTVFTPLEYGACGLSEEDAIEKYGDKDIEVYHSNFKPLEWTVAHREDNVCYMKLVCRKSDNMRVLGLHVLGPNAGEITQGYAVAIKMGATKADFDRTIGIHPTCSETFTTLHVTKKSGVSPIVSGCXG
Procedure: (§2) Assays were performed at 25 °C in 0.1 M potassium phosphate (pH 7.4), 10 mM EDTA using 100 μM NADPH unless otherwise stated.
(§3) Initial inhibitor screens were conducted in 200 μl volumes in 96 well plates with 50 μM inhibitor, 100 μM NADPH, and 5 nM TGR in 0.1 M potassium phosphate (pH 7.4), 10 mM EDTA with a preincubation step of 15 min. […] All assays were done in triplicate.

[10] = target: T2, S. mansoni TGR; type: biochemical; parameters: The entire TGR ORF plus the SECIS element was subcloned into pET-24a; made in house; host or cells: Escherichia coli BL21(DE3) with pSUABC; settings: read-out: IC50 S. mansoni TGR, GSSG (GR activity); 100 μM GSSG, 15 min preincubation with 100 μM NADPH
Procedure: as §2, §3

[11] = system: mammalian cells; parameters: method as in PMID 14561156; settings: cultured in 10 μM AF; cited from earlier work

CC(=O)OC[C@H]1O[C@@H]([S-])[C@H](OC(C)=O)[C@@H](OC(C)=O)[C@@H]1OC(C)=O.CCP(CC)CC.[Au+] [AF, auranofin]
IC50 [1]: 40000 nM | Tolerability in mice [2]: well tolerated | Inhibition of GR activity of TGR in worm homogenates [3]: ~100% | Inhibition of TrxR activity of TGR in worm homogenates [3]: ~100% | Time to adult worm death ([4]; 5 μM AF): 24 h | Mortality of adult worms after 6 h ([4]; 10 μM AF): 83% | Mortality of adult worms after 9 h ([4]; 10 μM AF): 100% | Time to unpairing of male and female worms ([4]; 10 μM AF): 1 h | Concentration able to kill parasites rapidly in culture ([4]; physiological concentration, abstract): 5 µM | LDH activity in worm homogenates [5]: no significant deviation from controls | Concentration tolerated by mammalian cell line [6]: 100 µM | Schistosomula survival after 1 d [7]: 93.7% | Schistosomula survival after 2 d [7]: 66.1% | Decrease of GSH:GSSG ratio [8]: 85% | IC50 [9]: 7 nM | IC50 [10]: 9 nM | Viability of mammalian cells [11]: over 95%
